From patent US9920060B2, “Pyrazolo[3,4-d]pyrimidine compound or salt thereof” (TAIHO PHARMACEUTICAL CO., LTD., priority 2015, dated 2018)
pIC50: −log10 of the molar value.

Columns and labels:
[1] = target: purified recombinant human HER2 protein (Homo sapiens (Human), UniProt P04626); assay: Inhibitory effect on HER2-phosphorylating activity (in vitro); format: biochemical; conditions: ATP 6 uM, substrate peptide 0.5 uM, 25° C. for 40 minutes
Experimental: Next, the HER2 protein, the substrate peptide (final concentration: 0.5 uM), manganese chloride (final concentration: 10 mM), ATP (final concentration: 6 uM), and the solution of the compound of the present invention in DMSO (final concentration of DMSO: 5%) were added into a buffer solution for kinase reaction (15 mM Tris (pH 7.5), 2 mM dithiothreitol, and 0.01% Tween 20), and the mixture was incubated at 25° C. for 40 minutes for kinase reaction. The reaction was terminated by adding EDTA (final concentration: 30 mM) thereto. Finally, the unphosphorylated substrate peptide (S) and the phosphorylated peptide (P) were separated and detected by microcapillary electrophoresis using LabChip® EZ Reader II (PerkinElmer Inc.).

[2] = system: A431 cells; assay: Cytostatic activity against EGFR-expressing cell line A431 (CellTiter-Glo); format: cell-based; conditions: EGFR-overexpressing human epithelioid cancer cell line, 3-day culture; read-out: A431 cell growth inhibitory activity IC50 value
Description: HER2-overexpressing human stomach cancer cell line NCI-N87 cells were suspended in RPMI1640 medium (manufactured by Life Technologies Corp.) containing 10% fetal bovine serum. Meanwhile, EGFR-overexpressing highly activated human epithelioid cancer cell line A431 cells were suspended in DMEM, high glucose medium (manufactured by Life Technologies Corp.) containing 10% fetal bovine serum. Subsequently, each cell suspension was inoculated to each well of a 384-well flat-bottom microplate and cultured at 37° C. for 1 day in an incubator containing 5% carbon dioxide. The compound of the present invention or Comparative Example compound 1 was dissolved in DMSO, and the test compound was diluted into a concentration of 500 times the final concentration using DMSO. The solution of the test compound in DMSO was diluted with the medium used in the suspension of each cell line, and this solution was added at a final concentration of DMSO of 0.2% to each well of the cell culture plate, followed by further culture at 37° C. for 3 days in an incubator containing 5% carbon dioxide.
Rate of growth inhibition (%)=(C−T)/(C)×100 T: Luminescence intensity of a well supplemented with the test compound C: Luminescence intensity of a well not supplemented with the test compound

Sequence of purified recombinant human HER2 protein (P04626 23-1255): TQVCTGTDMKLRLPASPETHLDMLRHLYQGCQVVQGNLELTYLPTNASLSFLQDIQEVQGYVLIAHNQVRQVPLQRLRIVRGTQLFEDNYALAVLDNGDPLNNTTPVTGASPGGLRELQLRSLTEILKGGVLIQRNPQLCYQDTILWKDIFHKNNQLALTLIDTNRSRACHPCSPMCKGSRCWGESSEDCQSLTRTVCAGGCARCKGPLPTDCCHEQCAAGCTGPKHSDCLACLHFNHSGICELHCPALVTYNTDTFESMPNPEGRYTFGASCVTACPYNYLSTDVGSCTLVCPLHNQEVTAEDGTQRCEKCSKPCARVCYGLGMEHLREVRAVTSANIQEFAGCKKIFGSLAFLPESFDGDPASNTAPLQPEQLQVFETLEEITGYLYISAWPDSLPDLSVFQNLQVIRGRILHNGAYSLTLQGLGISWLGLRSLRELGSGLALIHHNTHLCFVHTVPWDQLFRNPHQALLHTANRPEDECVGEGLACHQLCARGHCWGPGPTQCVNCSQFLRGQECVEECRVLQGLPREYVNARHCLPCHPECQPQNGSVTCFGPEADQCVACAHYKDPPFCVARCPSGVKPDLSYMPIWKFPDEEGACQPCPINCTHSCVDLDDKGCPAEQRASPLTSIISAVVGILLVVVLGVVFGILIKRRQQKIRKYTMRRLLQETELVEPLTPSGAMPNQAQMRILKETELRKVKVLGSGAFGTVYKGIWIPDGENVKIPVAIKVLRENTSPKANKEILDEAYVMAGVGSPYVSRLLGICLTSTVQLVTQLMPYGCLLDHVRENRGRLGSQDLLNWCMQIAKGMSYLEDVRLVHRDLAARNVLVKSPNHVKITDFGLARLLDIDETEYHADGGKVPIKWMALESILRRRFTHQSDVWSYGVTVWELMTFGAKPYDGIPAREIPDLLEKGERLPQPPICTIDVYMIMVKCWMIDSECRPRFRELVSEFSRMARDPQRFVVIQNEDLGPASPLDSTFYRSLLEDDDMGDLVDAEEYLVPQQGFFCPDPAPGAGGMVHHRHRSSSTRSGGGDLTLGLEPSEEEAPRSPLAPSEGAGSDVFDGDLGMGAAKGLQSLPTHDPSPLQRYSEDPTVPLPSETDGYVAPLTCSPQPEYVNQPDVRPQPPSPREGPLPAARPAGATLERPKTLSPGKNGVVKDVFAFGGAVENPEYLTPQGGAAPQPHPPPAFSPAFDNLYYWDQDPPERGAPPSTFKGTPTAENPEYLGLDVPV

| Molecule | pIC50 [1] | pIC50 [2] |
| --- | --- | --- |
| C=CC(=O)N1CCC[C@@H](n2nc(C(=O)Nc3ccc(NC(=O)N(C)C)cc3C)c3c(N)ncnc32)C1 [Example 74, (R)-1-(1-acryloylpiperidin-3-yl)-4-amino-N-(4-(3,3-dimethylureido)-2-methylphenyl)-1H-pyrazolo[3,4-d]pyrimidine-3-carboxamide] | 7.77 |  |
| C=CC(=O)N1CCC[C@@H](n2nc(C(=O)Nc3ccc(CC(=O)N4CCCC4)cc3C)c3c(N)ncnc32)C1 [Example 71, (R)-1-(1-acryloylpiperidin-3-yl)-4-amino-N-(2-methyl-4-(2-oxo-2-(pyrrolidin-1-yl)ethyl)phenyl)-1H-pyrazolo[3,4-d]pyrimidine-3-carboxamide] | 7.96 |  |
| C=CC(=O)N1CCC[C@@H](n2nc(C(=O)Nc3ccc(NC(=O)N4CCCC4)cc3C)c3c(N)ncnc32)C1 [Example 75, (R)-1-(1-acryloylpiperidin-3-yl)-4-amino-N-(2-methyl-4-(pyrrolidine-1-carboxamido)phenyl)-1H-pyrazolo[3,4-d]pyrimidine-3-carboxamide] | 7.80 |  |
| C=CC(=O)N1CCC[C@@H](n2nc(C(=O)Nc3cc(C)c(CC(=O)N(C)C)cc3C)c3c(N)ncnc32)C1 [Example 39, (R)-1-(1-acryloylpiperidin-3-yl)-4-amino-N-(4-(2-(dimethylamino)-2-oxoethyl)-2,5-dimethylphenyl)-1H-pyrazolo[3,4-d]pyrimidine-3-carboxamide] | 7.66 |  |
| C=CC(=O)N1CC(F)C[C@@H](n2nc(C(=O)Nc3ccc(CC(=O)N(C)C)cc3Cl)c3c(N)ncnc32)C1 (stereo partly drawn) [Example 76, 1-((3R)-1-acryloyl-5-fluoropiperidin-3-yl)-4-amino-N-(2-chloro-4-(2-(dimethylamino)-2-oxoethyl)phenyl)-1H-pyrazolo[3,4-d]pyrimidine-3-carboxamide] | 8.30 |  |
| C=CC(=O)N1CCC[C@@H](n2nc(C(=O)Nc3ccc(CC(=O)N(C)C)c4ccccc34)c3c(N)ncnc32)C1 [Example 5, (R)-1-(1-acryloylpiperidin-3-yl)-4-amino-N-(4-(2-(dimethylamino)-2-oxoethyl)naphthalen-1-yl)-1H-pyrazolo[3,4-d]pyrimidine-3-carboxamide] | 7.96 |  |
| C=CC(=O)N1CCC[C@@H](n2nc(C(=O)Nc3ccc(OC(=O)N(C)C)cc3)c3c(N)ncnc32)C1 [Example 21, (R)-4-(1-(1-acryloylpiperidin-3-yl)-4-amino-1H-pyrazolo[3,4-d]pyrimidine-3-carboxamido)phenyldimethyl carbamate] | 7.59 |  |
| C=CC(=O)N1CCC[C@@H](n2nc(C(=O)Nc3ccc(CC(=O)N4CC(O)C4)cc3C)c3c(N)ncnc32)C1 [Example 73, (R)-1-(1-acryloylpiperidin-3-yl)-4-amino-N-(4-(2-(3-hydroxyazetidin-1-yl)-2-oxoethyl)-2-methylphenyl)-1H-pyrazolo[3,4-d]pyrimidine-3-carboxamide] | 7.13 |  |
| (R,E)-4-(4-amino-1-(1-(4-dimethylamino)but-2-enoyl)piperidin-3-yl)-1H-pyrazolo[3,4-d]pyrimidine-3-carboxamido)naphthalen-1-yl dimethylcarbamate [Example 66] |  | 5.22 |
| C=CC(=O)N1CC(F)C[C@@H](n2nc(C(=O)Nc3ccc(CC(=O)N(C)C)c(C)c3C)c3c(N)ncnc32)C1 (stereo partly drawn) [Example 77, 1-((3R)-1-acryloyl-5-fluoropiperidin-3-yl)-4-amino-N-(4-(2-(dimethylamino)-2-oxoethyl)-2,3-dimethylphenyl)-1H-pyrazolo[3,4-d]pyrimidine-3-carboxamide] | 7.89 |  |
| C=CC(=O)N1CCC[C@@H](n2nc(C(=O)Nc3ccc(CC(=O)N(C)C)c(C)c3C)c3c(N)ncnc32)C1 [Example 13, (R)-1-(1-acryloylpiperidin-3-yl)-4-amino-N-(4-(2-(dimethylamino)-2-oxoethyl)-2,3-dimethylphenyl)-1H-pyrazolo[3,4-d]pyrimidine-3-carboxamide] | 7.89 |  |
| C=CC(=O)N1CCC[C@@H](n2nc(C(=O)Nc3ccc(CC(=O)N(C)C)cc3F)c3c(N)ncnc32)C1 [Example 25, (R)-1-(1-acryloylpiperidin-3-yl)-4-amino-N-(4-(2-(dimethylamino)-2-oxoethyl)-2-fluorophenyl)-1H-pyrazolo[3,4-d]pyrimidine-3-carboxamide] | 7.68 |  |
